The test system of data set [1] is unilaterally 6-OHDA-lesioned rats. Description: L-DOPA induced AIMs and drugs screening test in the 6-OHDA rat model. Type of data set: in vivo. The following applies: for L-DOPA-induced dyskinesia (AIMs): Example XIII; for L-DOPA induced AIMs (Lim+Ax+OI): Example X, FIG. 5. Here is the method: 6-OHDA (6-hydroxydopamine) is a neurotoxin that selectively kills dopaminergic and noradrenergic neurons and induces a reduction of dopamine levels in the brain. Administration of L-DOPA to unilaterally 6-OHDA-lesioned rats induces abnormal involuntary movements (ATMs). These are axial, limb and oral movements that occur only on the body side that is […] to the lesion.
DA-denervating lesions are performed by unilateral injection of 6-OHDA in the ascending nigrostriatal pathway. Rats were anesthetized with pentobarbital sodium 40 mg/kg (i.p.) and positioned in a stereotactic frame. 6-OHDA is injected into the right ascending DA bundle at the following coordinates (in mm) relative to bregma and dural surface: (1) toothbar position −2.3, A=−4.4, L=1.2, V=7.8, (7.5 ug 6-OHDA), (2) toothbar position +3.4, A=−4.0, L=0.8, V=8.0 mm (6 ug 6-OHDA). The neurotoxin injections are performed at a rate of 1 ul/min, and the injection cannula is left in place for an additional 2-3 min thereafter. Two weeks after surgery rats with nearly complete (>90%) lesions are selected by means of an amphetamine-induced rotation test. The animals are placed in plastic Perspex bowls (30 cm in diameter) and the rotational behavior (360° turns) is recorded by an automated rotometer for 90 min after the i.p. injection of 2.5 mg/kg d-amphetamine sulphate. […] Animals are then allocated into two well-matched sub-groups (according to the amphetamine rotation) and receive daily treatment as described below.
L-DOPA methyl ester (Sigma-Aldrich, Germany) is given at the dose of 6 mg/kg, combined with 15 mg/kg of benserazide HCl (Sigma-Aldrich, Germany). […] The selected rats are allocated groups of 9-12 animals each, which are balanced with the respect to AIM severity. The animals are then treated with the drug and drug combinations as described below.
AIMs ratings are performed by an investigator who was kept unaware of the pharmacological treatment administered to each rat (experimentally blinded). […] The AIM's are classified into four subtypes:
(A) axial AIMs, i.e., dystonic or choreiform torsion of the trunk and neck towards the side contralateral to the lesion. In the mild cases: lateral flexion of the neck or torsional movements of the upper trunk towards the side contralateral to the lesion. With repeated injection of L-DOPA, this movement may develop into a pronounced and continuous dystonia-like axial torsion. (B) limb AIMs, i.e., jerky and/or dystonic movements of the forelimb contralateral to the lesion. In mild cases: hyperkinetic, jerky stepping movements of the forelimb contralateral to the lesion, or small circular movements of the forelimb to and from the snout. As the severity of dyskinesia increases (which usually occurs with repeated administration of L-DOPA), the abnormal movements increase in amplitude, and assume mixed dystonic and hyperkinetic features. Dystonic movements are caused by sustained co-contraction of agonist/antagonist muscles; they are slow and force a body segment into unnatural positions. Hyperkinetic movements are fast and irregular in speed and direction. […] (C) orolingual AIMs, i.e., twitching of orofacial muscles, and bursts of empty masticatory movements with protrusion of the tongue towards the side contralateral to the lesion. This form of dyskinesia affects facial, tongue, and masticatory muscles. It is recognizable as bursts of empty masticatory movements, accompanied to a variable degree by jaw opening, lateral translocations of the jaw, twitching of facial muscles, and protrusion of the tongue towards the side contralateral to the lesion. […] Each of the four subtypes are scored on a severity scale from 0 to 4, where 0=absent, 1=present during less than half of the observation time, 2=present for more than half of the observation time, 3=present all the time but suppressible by external stimuli, and 4=present all the time and not suppressible by external stimuli.

A further data set relates to Huntington's disease. The following applies: one patient suffering from Huntington's disease; cited from earlier work.
The test system of a further data set is Parkinson's disease. Particulars: cited from earlier work.
The test system of a further data set is naïve rats. Description: Open field test (Example VI). Particulars: pentobarbital 15 mg/kg i.p. 30 min before test, positive control; FIG. 3. It is filed as in vivo, rat. On the procedure: The open field test was used to determine the effects of drug on locomotor activity. Rats were put in open-field chambers (dimensions 40 cm×40 cm×40 cm) 30 minutes after dosing. After a 15 minutes habituation, locomotion were recorded and analysed by Enthovision Video Tracking Software (Noldus Information Technology, Netherlands) for 60 minutes. All locomotor activities were done during dark phase and to eliminate olfactory cues, the arena was thoroughly cleaned with 70% v/v ethanol between each test.
Group setting for compound tests: Vehicle: Saline, i.p., 30 min before test, n=10 Positive control: Pentobarbital 15 mg/kg, i.p. 30 min before test, n=10
Zolmitriptan 3 mg/kg, i.p. 5 min before buspirone Buspirone 1 mg/kg, i.p. 30 min before test, n=10
Statistical analysis: The total locomotor activity is expressed as total moved distance (cm) and average velocity (cm/s) during 60 minutes. The data were analysed using One-Way ANOVA and the Tukey post-hoc test. The locomotor activity in six time point is expressed as moved distance (cm) and average velocity (cm/s) every 10 minutes. The data were analysed using One-Way ANOVA and the Tukey post-hoc test in each time point.

The test system of another data set is Sprague-Dawley (SD) rats. Description: Rotarod test (Example V). It is filed as in vivo, rat. The following applies: pentobarbital 15 mg/kg i.p. 30 min before test, positive control; FIG. 2. Here is the method:
In brief, the animals (30 SD male rats (180-220 g, bred in house, originally from SLAC Laboratory Animal Co. Ltd) at 9-week of age) were trained twice a day for a 3-day period. […] Each training trial was ended if the animal fell off or grips the device and spun around for two consecutive revolutions. The time that rat stayed on the Rotarod was recorded. The staying duration recorded at last training trail was used as baseline. Rats were grouped according a randomly distribution of baseline.
For the test session on the fourth day, the rats were evaluated on the Rotarod with the same setting as above at 30 min after dosing. The rats were dosed with drugs as described below. Dosing and Rotarod measurement were conducted by two scientists separately. Pentobarbital (15 mg/kg. i.p.) was used a as a positive control.
Vehicle: Saline, i.p., 30 min before test, n=10 Positive control: Pentobarbital 15 mg/kg, i.p. 30 min before test, n=10
The data were analyzed using One-Way ANOVA and the Tukey post-hoc test.
(In general: The rotarod test checks motor coordination on a turning rod.)

A further data set concerns LID. Particulars: cited from earlier work.
For data set [2], the system named is 6-OHDA unilateral lesion model rats. Description: Forepaw adjusting steps (FAS) test, 6-OHDA induced akinesia. It is filed as in vivo, rat. Particulars: for average percentage of adjusting steps (impaired paw to intact paw): L-DOPA 3 mg/kg with 15 mg/kg benserazide s.c. 60 min pretest.

The values that follow come from patent publication US20140221385A1, “COMBINATIONS OF SEROTONIN RECEPTOR AGONISTS FOR TREATMENT OF MOVEMENT DISORDERS” (CONCIT PHARMA APS, priority 2011, published 2014).

As for `CN(C)CCc1c[nH]c2ccc(C[C@H]3COC(=O)N3)cc12` [zolmitriptan, (S)-4-({3-[2-(dimethylamino)ethyl]-1H-indol-5-yl}methyl)-1,3-oxazolidin-2-one], the “L-DOPA-induced AIM (Total AIMs)” value in data set [1] (Example IV, FIG. 1, zolmitriptan 10 mg/kg i.p. given alone) is “did not reduce AIM”.

Consider `O=C1[C@H]2CCCC[C@H]2C(=O)N1CCCCN1CCN(c2nsc3ccccc23)CC1` [perospirone, (3aR, 7aS)-2-{4-[4-(1,2-benzisothiazol-3-yl)piperazin-1-yl]butyl}hexahydro-1H-isoindole-1,3(2H)-dione], for which, in the data set on Huntington's disease, the involuntary movement result is “could reduce involuntary movement”.

For `O=C1CC2(CCCC2)CC(=O)N1CCCCN1CCN(c2ncccn2)CC1` [buspirone, 8-[4-(4-pyrimidin-2-ylpiperazin-1-yl)butyl]-8-azaspiro[4.5]decane-7,9-dione], the “L-DOPA-induced AIM (Total AIMs)” value in data set [1] (Example IV, FIG. 1, buspirone 1 mg/kg i.p. given alone) is “only partly reduced AIM”. Moreover, the “L-DOPA-induced AIM (Total AIMs)” value in data set [1] (Example VII, FIG. 4, buspirone 0.5 mg/kg i.p. given alone) is “only partly reduced AIM”. Moreover, the “L-DOPA-induced dyskinesia (AIMs)” value in data set [1] (buspirone 0.25 and 0.5 mg/kg s.c. 25 min before test) is given as “significantly reduced L-DOPA-induced dyskinesia”. Further, in the data set with Parkinson's disease (100 mg/day), the disability ratings entry was “significant worsening of disability ratings” and the dyskinesia entry is given as “reduced dyskinesia”. Moreover, the “effects on Parkinson's disease or dyskinesia” value in the data set on Parkinson's disease (10-60 mg/day) was “did not have any effects on Parkinson's disease or dyskinesia”.

As for `CCCC(C)C1(CC)C(=O)NC(=O)NC1=O` (stereo not shown) [pentobarbital], the “open field locomotor activity (total move distance)” value in the data set on naïve rats is on record as “significantly reduced motor performance”. In the data set with Sprague-Dawley (SD) rats, the “rotarod performance (time on the rod)” value was “significantly reduced time spend on the rotarod”.

Consider `Fc1ccc(-c2cncc(CNC[C@H]3CCc4ccccc4O3)c2)cc1` [sarizotan, 1-[(2R)-3,4-dihydro-2H-chromen-2-yl]-N-([5-(4-fluorophenyl)pyridin-3-yl]methyl)methanamine], for which the LID entry in the data set with LID (phase 2A study and open labeled study) is on record as “reduced LID”. In addition, the “LID, effect compared to placebo” value in the data set on LID (several large phase 2b studies) is “no significant effects”.

`O=C1[C@@H]2[C@@H]3CC[C@@H](C3)[C@@H]2C(=O)N1CCCCN1CCN(c2ncccn2)CC1` [tandospirone, (1R,2R,6S,7S)-4-{4-[4-(pyrimidin-2-yl)piperazin-1-yl]butyl}-4-azatricyclo[5.2.1.02,6]decane-3,5-dione]: the “L-DOPA induced AIMs (Lim+Ax+OI)” value in data set [1] (tandospirone 1 mg/kg i.p. 30 min before test) was “partially and briefly reduce AIMs”; in data set [1] (tandospirone 2 mg/kg i.p. 30 min before test) it was “partially and briefly reduce AIMs”. In data set [1] (tandospirone 1 and 2 mg/kg i.p. 25 min before test), the “L-DOPA-induced dyskinesia (AIMs)” value was “significantly reduced L-DOPA-induced dyskinesia”.

On to `N[C@@H](Cc1ccc(O)c(O)c1)C(=O)O` [L-DOPA, 3,4-dihydroxyphenylalanine], for which the “average percentage of adjusting steps (impaired paw to intact paw)” value in data set [2] (first study) was found to be 77.8%; in data set [2] (second study), 77.7%. Moreover, the “6-OHDA induced akinesia, forelimb use” value in data set [2] (first study, acute L-DOPA 3 mg/kg with 15 mg/kg benserazide) is given as “alleviated 6-OHDA induced akinesia by increasing the forelimb use”. Also, the forelimb use result in data set [2] (second study, L-DOPA 3 mg/kg with 15 mg/kg benserazide HCl) is on record as “significantly increase the forelimb use”.
